# Source: PubChem BioAssay (NCI)
# Values joined by “and” are separate entries in the source; they are usually repeats but may differ in a detail not shown here. Identical values can stand only once.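 Growth conditions: 96-well plates. Treatment: test compound, 48 hours, 5 concentrations. Analysis: linear interpolation between bracketing concentrations; unreached endpoints set to highest concentration. Abbreviation: GI50, concentration required for 50% inhibition of growth. The concentration for full growth arrest is given as TGI.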
# How the values were obtained:
# Experiment in all cases: DTP human tumour cell line panel, 48 h
# SK-MEL-2 melanoma = tested on: SK-MEL-2 melanoma
# NCI-H522 lung = tested on: NCI-H522 lung
# MOLT-4 leukemia = tested on: MOLT-4 leukemia
# CAKI-1 renal = tested on: CAKI-1 renal
# OVCAR-4 ovarian = tested on: OVCAR-4 ovarian
# SW-620 colon = tested on: SW-620 colon
# HCC-2998 colon = tested on: HCC-2998 colon
# NCI-H23 lung = tested on: NCI-H23 lung
# KM12 colon = tested on: KM12 colon
# NCI-H460 lung = tested on: NCI-H460 lung
Structure (SMILES),GI50 (SK-MEL-2 melanoma),TGI (SK-MEL-2 melanoma),GI50 (NCI-H522 lung),TGI (NCI-H522 lung),GI50 (MOLT-4 leukemia),TGI (MOLT-4 leukemia),GI50 (CAKI-1 renal),TGI (CAKI-1 renal),GI50 (OVCAR-4 ovarian),TGI (OVCAR-4 ovarian),GI50 (SW-620 colon),TGI (SW-620 colon),GI50 (HCC-2998 colon),TGI (HCC-2998 colon),GI50 (NCI-H23 lung),TGI (NCI-H23 lung),GI50 (KM12 colon),TGI (KM12 colon),GI50 (NCI-H460 lung),TGI (NCI-H460 lung)
CC1=C([Te]c2ccc(O)cc2)C(=O)c2ccccc2C1=O,2.78 µM,8.15 µM,2.16 µM,7.31 µM,0.907 µM,4.3 µM,2.21 µM,7.41 µM,1.95 µM,4.38 µM,1.47 µM,3.15 µM,2.88 µM,9.66 µM,1.84 µM,5.84 µM,1.3 µM,3.27 µM,0.347 µM,1.62 µM
Cc1ncsc1-c1ccc(CNC(=O)[C@@H]2C[C@@H](O)CN2C(=O)[C@@H](NC(=O)C2(C#N)CC2)C(C)(C)C)cc1,> 100 µM,> 100 µM,> 100 µM,> 100 µM,> 100 µM,> 100 µM,82 µM,> 100 µM,80.7 µM,> 100 µM,> 100 µM,> 100 µM,> 100 µM,> 100 µM,> 100 µM,> 100 µM,> 100 µM,> 100 µM,> 100 µM,> 100 µM
COc1cc2c(cc1OC)C(=O)Cc1ccc(OC)c(OC)c1CN(C)CC2,–,> 100 µM,–,> 100 µM,–,> 100 µM,–,> 100 µM,–,> 100 µM,–,> 100 µM,–,> 100 µM,–,> 100 µM,–,> 100 µM,–,84.4 µM
CCN(CC)CCCC(C)N=c1cc(Nc2cc(=NC(C)CCCN(CC)CC)c3cc(OC)ccc3o2)oc2ccc(OC)cc12 (stereo not drawn),1.35 µM,2.71 µM,1.04 µM,2.15 µM,0.725 µM,2.93 µM,1.34 µM,5.75 µM,0.723 µM,1.71 µM,0.672 µM,3.04 µM,1.85 µM,7.14 µM,3.18 µM,12.7 µM,1.62 µM,5.63 µM,0.679 µM,2.15 µM
O=C1c2ccccc2-c2c1c1c(O)cccc1n2-c1ccccc1,> 100 µM,> 100 µM,> 100 µM,> 100 µM,> 100 µM,> 100 µM,> 100 µM,> 100 µM,–,> 100 µM,> 100 µM,> 100 µM,> 100 µM,> 100 µM,> 100 µM,> 100 µM,> 100 µM,> 100 µM,> 100 µM,> 100 µM
O=C(NC1C2CC3CC(C2)CC1C3)c1cc(/C=C/c2ccccc2)[nH]c(=S)n1 (stereo not drawn),–,> 100 µM,–,> 100 µM,–,> 100 µM,–,> 100 µM,–,> 100 µM,–,> 100 µM,–,> 100 µM,–,> 100 µM,–,> 100 µM,–,> 100 µM
COc1ccc(OC(C(=O)O)c2ccccc2)c2c1CCCC2=O (stereo not drawn),–,> 100 µM,–,> 100 µM,–,> 100 µM,–,> 100 µM,–,> 100 µM,–,> 100 µM,–,> 100 µM,–,> 100 µM,–,> 100 µM,–,> 100 µM
CCc1ccc2c(c1)N(CCO)C1=C(C(=O)OC1)C2c1cccc(Cl)c1 (stereo not drawn),0.371 µM,16.2 µM,0.242 µM,2.76 µM,1.78 µM,48.5 µM,3.02 µM,35.1 µM,0.834 µM,28.8 µM,0.416 µM,21.7 µM,1.35 µM,9.25 µM,0.923 µM,20.9 µM,0.433 µM,12.6 µM,0.393 µM,12.5 µM
c1ccc2c(c1)[nH]c1c2nc2ncccn21,–,> 100 µM,–,> 100 µM,–,> 100 µM,–,> 100 µM,–,> 100 µM,–,> 100 µM,–,> 100 µM,–,> 100 µM,–,> 100 µM,–,> 100 µM
COC(=O)/C=C/c1cn(C(C)=O)c2ccc(Br)cc12,29.5 µM,> 100 µM,21 µM,97.5 µM,27.4 µM,> 100 µM,19.1 µM,44.2 µM,31.4 µM,> 100 µM,35.6 µM,> 100 µM,21.8 µM,64.8 µM,27.9 µM,> 100 µM,25.3 µM,79.5 µM,34.6 µM,> 100 µM
O=C(Nc1nc2ccc(F)cc2s1)c1cccnc1Nc1ccc(Cl)cc1,2.11 µM,6.45 µM,2.17 µM,> 24.2 µM,2.47 µM,> 27 µM,2.56 µM,> 30.8 µM,2.99 µM,> 100 µM,3.04 µM,> 100 µM,2.73 µM,> 100 µM,1.67 µM,8.38 µM,2.61 µM,8.54 µM,2.22 µM,> 100 µM
Cc1cc(O)cc(C)c1/C=C/c1cncc(-c2nn[nH]n2)c1,> 25 µM,> 25 µM,> 25 µM,> 25 µM,> 25 µM,> 25 µM,> 25 µM,> 25 µM,> 25 µM,> 25 µM,> 25 µM,> 25 µM,> 25 µM,> 25 µM,> 25 µM,> 25 µM,> 25 µM,> 25 µM,> 25 µM,> 25 µM
O=c1oc(=O)c2oc3ccccc3oc1=2,–,> 100 µM,–,> 100 µM,–,> 100 µM,–,> 100 µM,–,> 100 µM,–,> 100 µM,–,> 100 µM,–,> 100 µM,–,> 100 µM,–,> 100 µM
O=S(O)CCCSSc1ccccc1,–,> 100 µM,–,42.4 µM,–,70.2 µM,–,> 100 µM,–,> 100 µM,–,> 100 µM,–,> 100 µM,–,> 100 µM,–,> 100 µM,–,> 100 µM
CN(C)CCCNC(=O)c1cncnc1Nc1ccc(OCc2cccc(F)c2)c(Cl)c1,2.08 µM,4.07 µM,2 µM,3.86 µM,1.67 µM,3.4 µM,1.66 µM,3.05 µM,1.83 µM,4.36 µM,1.85 µM,3.32 µM,1.55 µM,3.01 µM,1.74 µM,3.28 µM,1.74 µM,3.33 µM,1.71 µM,3.13 µM
COc1cc(O)c2c(c1)C(=O)c1cc3c(c(O)c1C2=O)C(OC1OC(C)C(O)C(O)C1OC)C(OC)C(C)(O)C3=O (stereo not drawn),2.49 µM,6.52 µM and 9.1 µM,2.18 µM,6.7 µM and 9.45 µM,3.21 µM and 5.19 µM,11.7 µM and 17.3 µM,1.99 µM and 0.671 µM,6.82 µM and 4.95 µM,1.7 µM,8.04 µM and 2.64 µM,2.3 µM,8.38 µM and 5.41 µM,2.22 µM,5.14 µM and 12.4 µM,2.36 µM,6.03 µM and 8.08 µM,3.11 µM and 2.33 µM,17.9 µM and 7.92 µM,1.27 µM,4.54 µM and 4.77 µM
CCOC(=O)/C(C#N)=C1/C(O)=C(C(=O)OC)C(C(=O)OC)=C1C(=O)OC,–,> 100 µM,–,> 100 µM,–,> 100 µM,–,> 100 µM,–,> 100 µM,–,> 100 µM,–,> 100 µM,–,> 100 µM,–,> 100 µM,–,> 100 µM
O=c1oc2ccc(-n3c(=O)c4ccccc4c4ccccc4c3=O)cc2c2ccccc12,–,> 100 µM,–,> 100 µM,–,> 100 µM,–,> 100 µM,–,> 100 µM,–,> 100 µM,–,> 100 µM,–,> 100 µM,–,> 100 µM,–,> 100 µM
COc1cc(-c2ncn(/C=C\C(=O)OC(C)C)n2)cc(C(F)(F)F)c1,0.0676 µM and 0.0501 µM,1.53 µM and 0.489 µM,0.0286 µM and 0.0535 µM,0.734 µM and 0.597 µM,0.0302 µM and 0.0282 µM,–,0.0464 µM and 0.0331 µM,12.7 µM and 5.52 µM,0.0684 µM and 0.0407 µM,4.18 µM and 9.49 µM,0.0368 µM and 0.0441 µM,6.58 µM and 5.38 µM,0.102 µM and 0.659 µM,1.41 µM and 3.82 µM,0.0663 µM and 0.103 µM,14.1 µM and 12.1 µM,0.368 µM and 0.309 µM,12.2 µM and 4.32 µM,0.0293 µM and 0.0327 µM,11.1 µM and 1.4 µM
O=c1c2ccccc2c2ccccc2c(=O)n1Cc1ccc2c(c1)OCO2,–,> 80.2 µM,–,> 100 µM,–,> 50.6 µM,–,> 100 µM,–,> 100 µM,–,> 100 µM,–,> 100 µM,–,> 71.8 µM,–,> 100 µM,–,> 100 µM
COc1ccc2nc3ccccc3c(NCCCN(C)CCCl)c2c1,–,1.81 µM,–,1.15 µM,–,0.888 µM,–,1.62 µM,–,2.07 µM,–,1.48 µM,–,1.69 µM,–,1.2 µM,–,2.06 µM,–,1.07 µM
COc1cc(-c2nn(-c3cccc(NC(=O)c4ccc(N5CCOCC5)c(C(F)(F)F)c4)c3)cc2-c2ccncc2)ccc1Cl,0.21 µM,2.46 µM,0.0606 µM,0.915 µM,0.669 µM,> 100 µM,0.293 µM,3.19 µM,1.51 µM,> 100 µM,0.168 µM,> 56.9 µM,1.5 µM,7 µM,0.826 µM,34.2 µM,0.213 µM,8.78 µM,0.299 µM,> 20.4 µM
